The results in this text go back to patent publication US8916553B2 (Bristol-Myers Squibb Company, priority 2010, dated 2014).

pIC50: −log10 of the molar value.

Human CYP17, sequence (P05093 whole entry): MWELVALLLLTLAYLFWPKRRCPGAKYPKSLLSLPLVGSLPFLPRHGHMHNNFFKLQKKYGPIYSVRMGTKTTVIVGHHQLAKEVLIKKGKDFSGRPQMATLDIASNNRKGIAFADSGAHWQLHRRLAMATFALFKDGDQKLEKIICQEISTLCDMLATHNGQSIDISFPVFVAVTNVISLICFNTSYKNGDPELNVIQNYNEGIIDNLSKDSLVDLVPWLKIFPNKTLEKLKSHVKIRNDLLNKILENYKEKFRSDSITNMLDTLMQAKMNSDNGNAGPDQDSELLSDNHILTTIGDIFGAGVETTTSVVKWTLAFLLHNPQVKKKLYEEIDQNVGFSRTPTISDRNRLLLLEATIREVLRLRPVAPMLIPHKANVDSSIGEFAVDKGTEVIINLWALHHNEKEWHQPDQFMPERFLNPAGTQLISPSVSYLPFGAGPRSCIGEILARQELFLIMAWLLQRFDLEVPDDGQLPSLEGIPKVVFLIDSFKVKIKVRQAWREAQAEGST

This experiment addresses Human CYP17 (Homo sapiens (Human), UniProt P05093). Description: CYP17 Total SPA Assay. The experiment is classed as biochemical. The note with it: microsomes from HEK2 cells stably transfected with CYP17; 3H-Pregnenolone 1 uM; NADPH 2 mM; 45 minutes at room temperature. Here is the method: CYP17 Total SPA Assay The assays were performed in U-bottom 384-well optiplates. […] The reaction was initiated by the combination of the microsomes and substrates in wells containing compound. The reaction was incubated at room temperature for 45 minutes and terminated by adding 7.5 μl of 0.2N HCl to each well. […] The plate was sealed and incubated overnight with shaking at 4° C. The beads were allowed to settle in the plate for 1 hour and the plate read on a TOPCOUNT® (Perkin-Elmer) plate reader. […] The final concentration of reagents in the assays are NADPH, 2 mM; 3H-Pregnenolone, 1 uM; microsomes, 1.25 ug/ml; […] Dose response curves were generated to determine the concentration required inhibiting 50% of enzyme activity (IC50). Compounds were dissolved at 10 mM in dimethylsulfoxide (DMSO) and evaluated at eleven concentrations, each in duplicate. IC50 values were derived by non-linear regression analysis. Table 22 below lists the IC50 values for the following Examples of this invention measured in the Total CYP17 SPA Assay hereinabove.
Take `CS(=O)(=O)Nc1ccc(-c2cnccc2C2CC2)c(C(F)(F)F)c1` [Example 243, N-(4-(4-cyclopropylpyridin-3-yl)-3-(trifluoromethyl)phenyl)methanesulfonamide]: the pIC50 was 7.41.
Under `COc1cc(NS(=O)(=O)c2cn(C)c(C)n2)ccc1-c1cncc2ccccc12` [Example 158, N-(4-(isoquinolin-4-yl)-3-methoxyphenyl)-1,2-dimethyl-1H-imidazole-4-sulfonamide] stands 6.93; under `COc1cc(NS(=O)(=O)Cc2ccccc2)ccc1-c1cncnc1C` [Example 168, N-(3-methoxy-4-(4-methylpyrimidin-5-yl)phenyl)-1-phenylmethanesulfonamide], 8.02; under `CCCS(=O)(=O)Nc1ccc(-c2cncnc2C)c(OC)c1` [Example 163, N-(3-methoxy-4-(4-methylpyrimidin-5-yl)phenyl)propane-1-sulfonamide], 6.87.
Take `Cc1ccncc1-c1ccc(NS(C)(=O)=O)cc1C(F)(F)F` [Example 240, N-(4-(4-methylpyridin-3-yl)-3-(trifluoromethyl)phenyl)methanesulfonamide]: the pIC50 is 7.59.
Take `CS(=O)(=O)Nc1ccc(-c2cnccc2Cl)c(OCCF)c1` [Example 236, N-(4-(4-chloropyridin-3-yl)-3-(2-fluoroethoxy)phenyl)methanesulfonamide]: the pIC50 is 6.76.
For `CS(=O)(=O)Nc1ccc(-c2cncc3ccccc23)c(C(F)(F)F)c1` [Example 241, N-(4-(isoquinolin-4-yl)-3-(trifluoromethyl)phenyl)methanesulfonamide] the value was 7.32; for `Cc1ccncc1-c1ccc(NS(C)(=O)=O)cc1OCC(F)(F)F` [Example 24, N-(4-(4-methyl-3-pyridinyl)-3-(2,2,2-trifluoroethoxy)phenyl)methane sulfonamide], 7.38.
Under `COc1cc(NS(=O)(=O)c2cccnc2)ccc1-c1cncnc1C` [Example 166, N-(3-methoxy-4-(4-methylpyrimidin-5-yl)phenyl)pyridine-3-sulfonamide] stands 6.88; under `CCS(=O)(=O)Nc1ccc(-c2cncc3ccccc23)c(OC)c1` [Example 156, N-(4-(isoquinolin-4-yl)-3-methoxyphenyl)ethanesulfonamide], 8.09.
For `CS(=O)(=O)Nc1ccc(-c2cncc3ccccc23)c(OCC(F)(F)F)c1` [Example 232, N-(4-(isoquinolin-4-yl)-3-(2,2,2-trifluoroethoxy)phenyl)methanesulfonamide] the value was 7.23; for `COc1cc(NS(C)(=O)=O)ccc1-c1cncc2ccccc12` [Example 142, N-(4-(isoquinolin-4-yl)-3-methoxyphenyl)methanesulfonamide], 8.18.
For the compound `COc1cc(NS(C)(=O)=O)ccc1-c1cncnc1C1CCCCC1` [Example 221, N-(4-(4-cyclohexylpyrimidin-5-yl)-3-methoxyphenyl)methanesulfonamide], the pIC50 was 7.00.
For `CCc1ncncc1-c1ccc(NS(C)(=O)=O)cc1OC` [Example 218, N-(4-(4-ethylpyrimidin-5-yl)-3-methoxyphenyl) methanesulfonamide] the value was 7.31; for `COc1cc(NS(=O)(=O)c2ccccc2)ccc1-c1cncc2ccccc12` [Example 143, N-(4-(isoquinolin-4-yl)-3-methoxyphenyl)benzenesulfonamide], 8.54.
For `CS(=O)(=O)Nc1ccc(-c2cncc3ccccc23)c(OC(F)(F)F)c1` [Example 228, N-(4-(isoquinolin-4-yl)-3-(trifluoromethoxy)phenyl)methanesulfonamide] the value was 8.49; for `COc1cc(NS(=O)(=O)c2ccccn2)ccc1-c1cncc2ccccc12` [Example 160, N-(4-(isoquinolin-4-yl)-3-methoxyphenyl)pyridine-2-sulfonamide], 8.22.
Turning to `Cc1ccncc1-c1ccc(NS(C)(=O)=O)cc1OCC(F)F` [Example 23, N-(3-(2,2-difluoroethoxy)-4-(4-methyl-3-pyridinyl)phenyl)methane sulfonamide], the pIC50 is 7.49.
Turning to `COc1cc(NS(C)(=O)=O)ccc1-c1cncnc1C(C)C` [Example 220, N-(4-(4-isopropylpyrimidin-5-yl)-3-methoxyphenyl) methanesulfonamide], the pIC50 was 6.99.
Under `CS(=O)(=O)Nc1ccc(-c2cncc3ccccc23)c(OCCF)c1` [Example 234, N-(3-(2-fluoroethoxy)-4-(isoquinolin-4-yl)phenyl)methanesulfonamide] stands 7.40; under `Cc1cc(NS(C)(=O)=O)ccc1-c1cnccc1-c1ccccc1` [Example 12, N-(3-methyl-4-(4-phenyl-3-pyridinyl)phenyl)methanesulfonamide], 6.98; under `COc1cc(NS(=O)(=O)c2cccc3cccnc23)ccc1-c1cncc2ccccc12` [Example 154, N-(4-(isoquinolin-4-yl)-3-methoxyphenyl)quinoline-8-sulfonamide], 7.57.
Under `COc1cc(NS(=O)(=O)c2ccccc2)ccc1-c1cncnc1C` [Example 165, N-(3-methoxy-4-(4-methylpyrimidin-5-yl)phenyl)benzenesulfonamide] stands 8.27; under `COc1cc(NS(C)(=O)=O)ccc1-c1cnccc1C1CC1` [Example 225, N-(4-(4-cyclopropylpyridin-3-yl)-3-methoxyphenyl)methanesulfonamide], 8.68; under `COc1ccc(S(=O)(=O)Nc2ccc(-c3cncc4ccccc34)c(OC)c2)cc1` [Example 147, N-(4-(isoquinolin-4-yl)-3-methoxyphenyl)-4-methoxybenzenesulfonamide], 8.57.
Under `COc1cc(NS(=O)(=O)CC(F)(F)F)ccc1-c1cncnc1C` [Example 167, 2,2,2-trifluoro-N-(3-methoxy-4-(4-methylpyrimidin-5-yl)phenyl)ethanesulfonamide] stands 6.80.
Turning to `Cc1cc(NS(C)(=O)=O)ccc1-c1cnccc1Cl` [Example 195, N-(4-(4-chloro-3-pyridinyl)-3-methylphenyl)methanesulfonamide], the pIC50 is 7.28.
For `COc1cc(NS(=O)(=O)C2CC2)ccc1-c1cncc2ccccc12` [Example 159, N-(4-(isoquinolin-4-yl)-3-methoxyphenyl)cyclopropanesulfonamide] the value was 8.21; for `COc1ccncc1-c1ccc(NS(C)(=O)=O)cc1OCC(F)(F)F` [Example 233, N-(4-(4-methoxypyridin-3-yl)-3-(2,2,2-trifluoroethoxy)phenyl)methanesulfonamide], 7.25.
For `COc1cc(NS(=O)(=O)CC(C)C)ccc1-c1cncnc1C` [Example 164] the value was 7.00.
For `COc1cc(NS(C)(=O)=O)ccc1-c1cncn2cccc12` [Example 250, N-(3-methoxy-4-(pyrrolo[1,2-c]pyrimidin-4-yl)phenyl)methanesulfonamide] the value was 6.92; for `COc1cc(NS(=O)(=O)c2cccc3ccccc23)ccc1-c1cncc2ccccc12` [Example 144, N-(4-(isoquinolin-4-yl)-3-methoxyphenyl)naphthalene-1-sulfonamide], 7.96; for `COc1cc(NS(=O)(=O)CCc2ccccc2)ccc1-c1cncnc1C` [Example 169, N-(3-methoxy-4-(4-methylpyrimidin-5-yl)phenyl)-2-phenylethanesulfonamide], 6.92.
Take `Cc1ccncc1-c1ccc(NS(=O)(=O)C2CC2)cc1OCC(F)(F)F` [Example 184]: the pIC50 was 8.11.
Turning to `COc1cc(NS(=O)(=O)Cc2ccc(Cl)cc2)ccc1-c1cncnc1C` [Example 173, 1-(4-chlorophenyl)-N-(3-methoxy-4-(4-methylpyrimidin-5-yl)phenyl)methanesulfonamide], the pIC50 is 8.47.
For `COc1ccc(S(=O)(=O)Nc2ccc(-c3cncnc3C)c(OC)c2)cc1` [Example 170, 4-methoxy-N-(3-methoxy-4-(4-methylpyrimidin-5-yl)phenyl)benzenesulfonamide] the value was 7.25.
Take `COc1cc(NS(=O)(=O)C2CC2)ccc1-c1cncnc1C` [Example 162, N-(3-methoxy-4-(4-methylpyrimidin-5-yl)phenyl)cyclopropanesulfonamide]: the pIC50 is 6.77.
Under `Cc1cc(NS(C)(=O)=O)ccc1-c1cnccc1OCC(F)(F)F` [Example 198, N-(3-methyl-4-(4-(2,2,2-trifluoroethoxy)-3-pyridinyl)phenyl) methane sulfonamide] stands 8.85; under `COc1cc(NS(C)(=O)=O)ccc1-c1cncnc1C` [Example 161, N-(3-methoxy-4-(4-methylpyrimidin-5-yl)phenyl)methanesulfonamide], 6.95; under `COc1cc(NS(C)(=O)=O)ccc1-c1cncnc1OC` [Example 245], 7.24.
Under `COc1cc(NS(=O)(=O)c2ccc3ccccc3c2)ccc1-c1cncnc1C` [Example 175, N-(3-methoxy-4-(4-methylpyrimidin-5-yl)phenyl)naphthalene-2-sulfonamide] stands 7.23; under `COc1cc(NS(=O)(=O)c2cccc3cccnc23)ccc1-c1cncnc1C` [Example 176, N-(3-methoxy-4-(4-methylpyrimidin-5-yl)phenyl)quinoline-8-sulfonamide], 6.93.
Take `CS(=O)(=O)Nc1ccc(-c2cncc3ncccc23)c(OCCF)c1` [Example 239, N-(3-(2-fluoroethoxy)-4-(1,7-naphthyridin-5-yl)phenyl)methanesulfonamide]: the negative-log IC50 (pIC50) is 7.29.

As usually defined, the pIC50 is −log10 of the IC50, conventionally taken in molar units.
